Data reported in publication PMC7457965 (Bioorganic & Medicinal Chemistry, 2020).
Read-outs that look alike come from different tables or passages of the source.

Key:
YFV (17D) = assay type: cell-based, Yellow Fever Virus; conditions: read-out: YFV EC50
DENV (New Guinea C) = assay type: cell-based, Dengue virus; conditions: read-out: DENV EC50: effective concentration showing 50% inhibition of virus-induced CPE
ZIKV (MR766) = assay type: cell-based, Zika virus; conditions: read-out: ZIKV EC50
DENV NS5-MTase = target: T1, DENV NS5-MTase (Dengue virus type 3, UniProt Q6YMS4); experiment: radioactive filter-binding 2'-O-MTase assay, DENV; assay type: biochemical, DENV-3; conditions: 50 µM compound
T1 sequence (Q6YMS4 2492-2753 limits assumed): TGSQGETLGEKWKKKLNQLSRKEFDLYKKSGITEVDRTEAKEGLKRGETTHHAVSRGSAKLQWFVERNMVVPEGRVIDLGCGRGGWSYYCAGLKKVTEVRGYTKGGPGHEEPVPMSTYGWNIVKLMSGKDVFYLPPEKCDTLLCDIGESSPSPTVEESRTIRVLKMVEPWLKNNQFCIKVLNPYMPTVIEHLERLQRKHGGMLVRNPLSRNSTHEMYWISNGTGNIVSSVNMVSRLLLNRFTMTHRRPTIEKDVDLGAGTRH

[1] = preliminary minimum tolerated dose; assay type: in vivo
human N7 (RNMT) MTase = human N7 (RNMT) MTase (Homo sapiens, UniProt O43148); assay type: biochemical; conditions: 50 µM
Ebola (EBOV) virus [2] = conditions: cited from earlier work
ZIKV NS5-MTase = ZIKV NS5-MTase (Zika virus, UniProt A0A024B7W1); experiment: radioactive filter-binding 2'-O-MTase assay, ZIKV; assay type: biochemical; conditions: 50 µM compound
SARS = conditions: read-out: activity against SARS; cited from earlier work
Ebola (EBOV) virus [3] = assay type: cell-based; conditions: read-out: EC50 against EBOV

Chain of human N7 (RNMT) MTase (O43148 whole entry): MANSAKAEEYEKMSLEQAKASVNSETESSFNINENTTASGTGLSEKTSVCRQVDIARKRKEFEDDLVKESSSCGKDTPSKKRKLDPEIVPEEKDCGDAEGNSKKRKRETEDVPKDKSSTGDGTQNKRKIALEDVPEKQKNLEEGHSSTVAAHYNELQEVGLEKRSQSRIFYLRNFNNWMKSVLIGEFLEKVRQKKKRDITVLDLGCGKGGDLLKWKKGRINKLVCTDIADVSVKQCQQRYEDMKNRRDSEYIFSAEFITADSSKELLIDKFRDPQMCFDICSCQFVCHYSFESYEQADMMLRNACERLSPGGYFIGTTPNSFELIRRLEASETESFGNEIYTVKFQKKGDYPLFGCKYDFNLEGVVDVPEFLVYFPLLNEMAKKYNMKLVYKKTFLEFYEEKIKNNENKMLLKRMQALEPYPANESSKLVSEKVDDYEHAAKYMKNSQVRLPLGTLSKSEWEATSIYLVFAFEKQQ
Chain of ZIKV NS5-MTase (A0A024B7W1 2521-2785 limits assumed): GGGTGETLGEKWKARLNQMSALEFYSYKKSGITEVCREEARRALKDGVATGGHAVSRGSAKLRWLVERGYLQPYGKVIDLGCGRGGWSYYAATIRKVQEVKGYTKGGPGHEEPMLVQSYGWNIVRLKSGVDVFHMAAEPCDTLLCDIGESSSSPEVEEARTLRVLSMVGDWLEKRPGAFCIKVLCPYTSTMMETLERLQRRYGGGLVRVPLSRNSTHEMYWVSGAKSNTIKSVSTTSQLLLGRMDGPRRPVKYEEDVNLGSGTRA

Substance	EC50 (YFV (17D))	EC50 (DENV (New Guinea C))	EC50 (ZIKV (MR766))	Percent inhibition of DENV MTase (DENV NS5-MTase)	minimum tolerated dose (MTD) studies: no toxicity up to [1]	inhibition of human N7 MTase activity (human N7 (RNMT) MTase)	activity against Ebola (EBOV) virus (Ebola (EBOV) virus [2])	EC50 (Ebola (EBOV) virus [2]; read-out: EC50 against Ebola (EBOV) virus)	Percent inhibition of ZIKV MTase (ZIKV NS5-MTase)	EC50 (SARS)	EC50 (Ebola (EBOV) virus [3])
2-((4-(2,4-dimethoxypyrimidine-5-yl)-1H-imidazol-1-yl) methoxy)ethan-1-ol [Compound 2]	> 58 µM	> 50 µM	> 76 µM	–	–	–	–	–	–	–	–
2-((4-(2-amino-4-methoxypyrimidin-5-yl)-1H-imidazol-1-yl) methoxy)ethan-1-ol [Compound 1]	0.37 µM	0.057 µM	–	did not exhibit a significant inhibitory effect	≥ 250 mgs/kg	did not exhibit a significant inhibitory effect	active	2.2 ± 0.3 µM	did not exhibit a significant inhibitory effect	–	–
2-((4-(2-amino-4-methoxypyrimidin-5-yl)-1H-imidazol-1-yl)methoxy)ethyl acetate [Compound 1-Ac]	> 57 µM	6.1 µM	> 100 µM	–	–	–	active	–	–	11.9 µM	–
2-((4–2,4-dimethoxypyrimidin-5-yl)-1H-imidazol-1-yl)methoxy) ethyl acetate [Compound 2-Ac]	> 58 µM	19 µM	–	–	–	–	–	–	–	–	8.2 ± 1.8 µM
2-ethylbutyl ((2-((4-(2,4-dimethoxypyrimidin-5-yl)-1H-imidazol-1-yl)methoxy)ethoxy)-(phenoxy)-phosphoryl)alaninate [Compound 2-MG]	> 53 µM	> 53 µM	> 56 µM	–	–	–	–	–	–	–	–
2-ethylbutyl((2-((4-(2-amino-4-methoxypyrimidin-5-yl)-1H-imidazol-1-yl)methoxy)-ethoxy)-(phenoxy)phosphoryl)alaninate [Compound 1-MG]	> 55 µM	> 57 µM	> 31 µM	–	–	–	active	–	–	–	–
